Measurements reported in paper PMC3561686 (Basic & Clinical Pharmacology & Toxicology, 2012).
Where two headings read alike, the source gives them in different places.

Experiments:
[1] = for Cmax: human, in vivo, prasugrel alone session, dried blood spots, mean (S.D.); for AUC ratio (prasugrel + ritonavir versus prasugrel alone): AUC0–6 hr; for AUC ratio (prasugrel + ritonavir versus prasugrel alone) / Cmax ratio (prasugrel + ritonavir versus prasugrel alone): mean ratio
CYP2C9 = CYP2C9 (Homo sapiens, UniProt P11712); conditions: mean ratio
CYP2C19 = CYP2C19 (Homo sapiens, UniProt P33261); experiment: CYP2C19 phenotyping: omeprazole metabolic ratio in plasma; format: in vivo; conditions: mean ratio
CYP3A = conditions: cited from earlier work
[2] = read-out: expected Cmax; after a 100 mg dose; cited from earlier work
human liver microsomes = conditions: cited from earlier work

Chain of CYP2C9 (P11712 whole entry): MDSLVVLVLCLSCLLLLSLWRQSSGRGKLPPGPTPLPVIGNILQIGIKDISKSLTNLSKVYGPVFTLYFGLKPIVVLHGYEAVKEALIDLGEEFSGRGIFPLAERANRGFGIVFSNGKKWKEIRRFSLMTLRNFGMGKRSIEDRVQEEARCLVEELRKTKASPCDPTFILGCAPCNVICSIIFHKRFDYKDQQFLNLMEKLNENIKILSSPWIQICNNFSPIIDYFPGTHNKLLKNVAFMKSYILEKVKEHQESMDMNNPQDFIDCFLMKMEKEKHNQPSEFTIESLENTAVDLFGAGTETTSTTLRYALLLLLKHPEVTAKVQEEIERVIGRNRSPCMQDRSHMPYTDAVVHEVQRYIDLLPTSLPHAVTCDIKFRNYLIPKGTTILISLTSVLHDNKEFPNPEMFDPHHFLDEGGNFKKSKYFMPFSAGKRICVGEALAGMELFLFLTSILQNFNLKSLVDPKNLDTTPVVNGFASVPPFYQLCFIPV
Chain of CYP2C19 (P33261 whole entry): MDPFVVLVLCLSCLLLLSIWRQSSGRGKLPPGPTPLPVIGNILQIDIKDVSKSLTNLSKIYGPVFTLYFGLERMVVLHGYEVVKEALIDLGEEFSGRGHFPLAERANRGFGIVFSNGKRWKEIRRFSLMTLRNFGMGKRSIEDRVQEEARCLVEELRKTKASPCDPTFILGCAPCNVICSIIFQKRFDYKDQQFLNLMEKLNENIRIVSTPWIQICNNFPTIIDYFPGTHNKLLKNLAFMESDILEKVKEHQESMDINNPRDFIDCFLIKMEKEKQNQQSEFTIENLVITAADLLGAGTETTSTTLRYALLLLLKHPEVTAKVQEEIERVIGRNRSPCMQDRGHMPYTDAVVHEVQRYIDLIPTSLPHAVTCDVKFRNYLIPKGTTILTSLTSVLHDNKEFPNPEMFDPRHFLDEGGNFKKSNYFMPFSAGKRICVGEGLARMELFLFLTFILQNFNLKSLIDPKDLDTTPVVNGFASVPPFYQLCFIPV

Structure (SMILES) | Cmax [1] [ng/mL] | AUC ratio (prasugrel + ritonavir versus prasugrel alone) [1] | Cmax ratio (prasugrel + ritonavir versus prasugrel alone) [1] | other results
CC(NC(C)(C)C)C(=O)c1cccc(Cl)c1 (centres unmarked) [Bupropion, bupropion] | 20.9 | – | – | –
CC(C(=O)O)c1ccc(-c2ccccc2)c(F)c1 (centres unmarked) [Flurbiprofen, flurbiprofen] | 1140 | 0.95 | 0.98 | Metabolic Ratio (OH flurbiprofen/flurbiprofen), ratio prasugrel + ritonavir versus prasugrel alone (CYP2C9): not affected
Cc1ncc2n1-c1ccc(Cl)cc1C(c1ccccc1F)=NC2 [Midazolam, midazolam] | 0.17 | 26.5 | 6.1 | AUC ratio (prasugrel + ritonavir versus prasugrel alone) ([1]; listed as midazolam): 26; Cmax ratio (prasugrel + ritonavir versus prasugrel alone) ([1]; listed as midazolam): 6
COc1ccc2[nH]c([S+]([O-])Cc3ncc(C)c(OC)c3C)nc2c1 (centres unmarked) [Omeprazole, omeprazole] | 35.6 | 1.25 | 1.54 | Metabolic Ratio (OH omeprazole/omeprazole), ratio prasugrel + ritonavir versus prasugrel alone (CYP2C19): not affected
CC(=O)N1CCN(c2ccc(OCC3COC(Cn4ccnc4)(c4ccc(Cl)cc4Cl)O3)cc2)CC1 (centres unmarked) [ketoconazole] | – | – | – | Change in prasugrel AM formation or the inhibition of platelet aggregation when prasugrel was administered with the drug (CYP3A): no change
CC(C)c1nc(CN(C)C(=O)N[C@H](C(=O)N[C@@H](Cc2ccccc2)C[C@H](O)[C@H](Cc2ccccc2)NC(=O)OCc2cncs2)C(C)C)cs1 [ritonavir] | – | – | – | Cmax [2]: 1000 to 2000 nM; Inhibition of prasugrel bioactivation (human liver microsomes): potent inhibitor
